# Assay: Comparative in vitro release of Oligo-3 and Oligo-4 from gold nanoparticles with glutathione, followed by fluorescence
# Conditions: PBS, glutathione final concentration 1 mM, Ex: 470, Em: 517 nm
# Procedure: To a solution of modified gold nanoparticles prepared in Example 9 in PBS bearing the Oligo-3 or Oligo-4 was added glutathione (final concentration 1 mM). The in vitro release of the oligonucleotides bearing the fluorescein molecule is followed by fluorescence. The fluorescence was recorded at different periods of time. […] Particularly, in the case of Oligo-3, the fluorescence increases fast due to the release of the oligonucleotide from the gold nanoparticle in the presence of glutathione at 1 mM. The fluorescence is quenched when fluorescein is close to the gold nanoparticle, but it increases over time due to the release of the fluorescent oligonucleotide in the presence of glutathione. […] Ex: 470, Em: 517 nm.
row,Substance,in vitro release of the fluorescein oligonucleotide from gold nanoparticles
1,"Oligo-3: TTTTTTTTTT (SEQ ID NO: 3), fluorescein at position 5′ and the modification herein reported at position 3′ (5' fluorescein; 3' modification; Oligonucleotide sequence as in Oligo-3 and Oligo-4)",release takes place efficiently
2,"Oligo-4: TTTTTTTTTT (SEQ ID NO: 3), fluorescein at 5′, dithiolane group at 3′ but not the disulfide group; comparative (5' fluorescein; 3' dithiolane; Oligonucleotide sequence as in Oligo-3 and Oligo-4)",inefficient release

# Source: patent publication US20160075680A1, “MODIFIED SOLID SUPPORT FOR THE SYNTHESIS OF OLIGONUCLEOTIDES” (FUNDACIÓN IMDEA NANOCIENCIA, priority 2013, published 2016)
